Data reported in patent US5053329A, “Process for preparation of novel angiotensin II antagonists” (Merck & Co., Inc., priority 1991, dated 1991).

Target: T1, angiotensin II receptor (rabbit aortae membrane preparation) (Oryctolagus cuniculus, UniProt P34976)
T1 sequence (P34976 1-359): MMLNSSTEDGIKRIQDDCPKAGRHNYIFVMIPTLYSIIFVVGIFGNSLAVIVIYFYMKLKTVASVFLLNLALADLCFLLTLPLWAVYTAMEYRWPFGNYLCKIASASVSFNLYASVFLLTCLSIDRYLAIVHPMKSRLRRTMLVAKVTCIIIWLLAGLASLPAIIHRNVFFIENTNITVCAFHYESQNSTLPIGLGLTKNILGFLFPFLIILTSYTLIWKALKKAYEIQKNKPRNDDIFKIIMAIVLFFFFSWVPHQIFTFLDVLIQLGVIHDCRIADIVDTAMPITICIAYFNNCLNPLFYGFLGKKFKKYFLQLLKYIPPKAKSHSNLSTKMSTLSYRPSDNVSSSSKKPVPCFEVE
Test: Receptor binding assay using rabbit aortae membrane preparation (displacement of 125I-Sar1 Ile8-angiotensin II)
Details: result in words
Method: This assay is also referred to herein as the "IC50 " assay.
RECEPTOR BINDING ASSAY USING RABBIT AORTAE MEMBRANE PREPARATION
Three frozen rabbit aortae (obtained from Pel-Freeze Biologicals) were suspended in 5 mM Tris-0.25M Sucrose, pH 7.4 buffer (50 ml) homogenized, and then centrifuged. The mixture was filtered through a cheesecloth and the supernatant was centrifuged for 30 minutes at 20,000 rpm at 4° C. The pellet thus obtained was resuspended in 30 ml of 50 mM Tris-5 mM MgCl2 buffer containing 0.2% Bovine Serum Albumin and 0.2 mg/ml Bacitration and the suspension was used for 100 assay tubes. Samples tested for screening were done in duplicate. To the membrane preparation (0.25 ml) there was added ^125 I-Sar^1 Ile^8 -angiotensin II [obtained from New England Nuclear] (10 ul; 20,000 cpm) with or without the test sample and the mixture was incubated at 37° C. for 90 minutes. The mixture was then diluted with ice-cold 50 mM Tris-0.9% NaCl, pH 7.4 (4 ml) and filtered through a glass fiber filter (GF/B Whatman 2.4" diameter). The filter was soaked in scintillation cocktail (10 ml) and counted for radioactivity using Packard 2660 Tricarb liquid scintillation counter. […]

SMILES | A II antagonist activity by the IC50 assay
CCCc1nc2c(C)c(O)cnc2n1Cc1ccc(-c2ccccc2-c2nnn[nH]2)cc1 [6-HO-oxidation product] | exhibit A II antagonist activity
CCCc1nc2c(CO)ccnc2n1Cc1ccc(-c2ccccc2-c2nnn[nH]2)cc1 [7-HOCH2 - oxidation product] | exhibit A II antagonist activity
